# Laboratory results as given in patent publication US5093371A, “Naphthyl ketone inhibitors of cholesterol esterase and their use as hypolipidemic and hypocaloric agents” (University of Iowa Research Foundation, priority 1990, dated 1992).
# Molecular target: Cholesterol esterase (CEase)
# Assay: Inhibition of CEase-catalyzed hydrolysis of p-nitrophenylbutyrate (PNPB)
# Type: biochemical
# Conditions: for Ki: 25.0±0.1 C, pH 7.3, 0.1 M sodium phosphate, 1 mM Triton X100, substrate PNPB, read-out: Ki (inhibition constants for difluoroketone inhibitors of cholesterol esterase)
# Procedure: The CEase-catalyzed hydrolysis of the water-soluble substrate p-nitrophenylbutyrate (PNPB) is a reaction that is routinely used to characterize inhibitors. The reaction is followed at 25.0±0.1.C and pH 7.3 in 0.1 M sodium phosphate buffer that contains 0.1 N NaC1 , 1 mM Triton X100, and the appropriate concentrations of CEase and PNPB. Inhibitor characterization occurs in two stages: (a) the form of the inhibition is determined by fitting substrate timecourse data to the integrated form of the Michaelis-Menten equation by nonlinear-least squares methods: [formula] Reactions are run in the absence and presence of inhibitor. Lineweaver-Burk plots of the data are constructed, as shown in FIG. 1 for inhibition by iododifluoromethyl 2-naphthyl ketone. (b) The dissociation constant of the CEase-inhibitor complex, Ki, is determined by one of two methods. In the first (Method A), […] is calculated from a replot of the apparent Km values (determined by fitting timecourses to equation (1)) versus inhibitor concentration. The replot is described by equation 2: [formula] […] In the second approach (Method B), initial velocity (Vi) versus inhibitor concentration data are fit by nonlinear-least squares to equation 3: [formula] […] The apparent Ki is then used to calculate the actual Ki from equation 4:
# Ki =Ki^app /(1+[S]/Km) (4)
# In equation 4 [S] is the concentration of the substrate PNPB and Km, the Michaelis constant for CEase-catalyzed hydrolysis of PNPB, is 0.09 mM.
Ki [nM],CEase inhibition (in words) (summary of Table I Ki values),Km (Michaelis constant used in equation 4) [µM],SMILES
800,–,–,"O=C(c1ccc2ccccc2c1)C(F)(F)I [Compound 3, Iododifluoromethyl 2-Naphthyl Ketone]"
270,–,–,"CCCCC(F)(F)C(=O)c1ccc2ccccc2c1 [Compound 4, 1,1-Difluoropentyl 2-Naphthyl Ketone]"
80,most potent inhibitor,–,"CCCCCC(F)(F)C(=O)c1ccc2ccccc2c1 [Compound 6, 1,1-Difluorohexyl 2-Naphthyl Ketone]"
6000,–,–,"COc1ccc2cc(C(=O)C(F)(F)Cl)ccc2c1 [Compound 2, Chlorodifluoromethyl 2-(6-Methoxy)naphthyl Ketone]"
380,–,–,"CCCCC(F)(F)C(=O)c1ccc2cc(OC)ccc2c1 [Compound 5, 1,1-Difluoropentyl 2-(6-Methoxy)naphthyl Ketone]"
2000,–,–,"O=C(c1ccc2ccccc2c1)C(F)(F)Cl [Compound 1, Chlorodifluoromethyl 2-Naphthyl Ketone]"
–,–,90,"CCCC(=O)Oc1ccc([N+](=O)[O-])cc1 [PNPB, p-nitrophenylbutyrate, reference compound]"
